Measurements reported in patent US20240246964A1 (Arbutus Biopharma Corporation, priority 2021, published 2024).

Assays:
human PD-L1 = human PD-L1 (Homo sapiens (Human), UniProt Q9NZQ7); experiment: T cell activation luciferase reporter cell culture system (T Cell Activation Assay); type: cell-based; details: luciferase reporter assay; PD-L1 aAPC/CHO-K1 cells with PD-1 effector Jurkat T cells
[1] = molecular target: PD-L1 His protein / PD-1 Fc protein (Homo sapiens (Human), UniProt Q9NZQ7); experiment: HTRF Assay (PD-1/PD-L1 interaction); type: binding; details: PD-L1 His 6 nM, PD-1 Fc 6 nM
Sequence of PD-L1 His protein / PD-1 Fc protein (Q9NZQ7 19-238): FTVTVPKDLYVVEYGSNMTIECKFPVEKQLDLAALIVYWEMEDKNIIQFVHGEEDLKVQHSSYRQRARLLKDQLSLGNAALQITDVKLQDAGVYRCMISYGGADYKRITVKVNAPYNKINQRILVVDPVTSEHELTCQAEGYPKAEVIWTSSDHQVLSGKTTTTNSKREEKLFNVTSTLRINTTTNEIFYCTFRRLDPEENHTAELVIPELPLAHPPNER

Sequence of human PD-L1 (Q9NZQ7 19-290): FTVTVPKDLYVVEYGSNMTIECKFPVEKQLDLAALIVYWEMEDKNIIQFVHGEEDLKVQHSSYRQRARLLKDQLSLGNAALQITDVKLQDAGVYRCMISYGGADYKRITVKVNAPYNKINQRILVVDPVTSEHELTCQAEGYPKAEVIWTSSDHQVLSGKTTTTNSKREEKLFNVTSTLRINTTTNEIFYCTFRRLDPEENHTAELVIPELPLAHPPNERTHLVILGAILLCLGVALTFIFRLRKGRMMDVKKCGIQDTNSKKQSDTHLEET

Row | SMILES | EC50 (human PD-L1) [nM] | IC50 [1] [nM]
1 | COC(=O)CNCc1ccc(-c2cccc(-c3ccnc(-c4cc5c(c(OC)c4)CN(C[C@H](C)O)CC5)c3Cl)c2Cl)nc1OC [Compound 218, methyl (S)-((6-(2-chloro-3-(3-chloro-2-(2-(2-hydroxypropyl)-8-methoxy-1,2,3,4-tetrahydroisoquinolin-6-yl)pyridin-4-yl)phenyl)-2-methoxypyridin-3-yl)methyl)glycinate] | 601 | 7.12
2 | COc1cc(-c2nccc(-c3cccc(NC(=O)c4ccc(CNC5CCN(C(C)=O)CC5)cn4)c3C)c2Cl)ccc1CNC1CCN(C(C)=O)CC1 [Example 645, 5-(((1-Acetylpiperidin-4-yl)amino)methyl)-N-(3-(2-(4-(((1-acetylpiperidin-4-yl)amino)methyl)-3-methoxyphenyl)-3-chloropyridin-4-yl)-2-methylphenyl)picolinamide] | 1410 | 0.44
3 | CNCc1ccc(-c2cccc(-c3ccnc(-c4cc(CNC56CC(C(=O)O)(C5)C6)cc(OC)c4)c3Cl)c2Cl)nc1OC [Compound 174, 3-((3-(3-chloro-4-(2-chloro-3-(6-methoxy-5-((methylamino)methyl)pyridine-2-yl)phenyl)pyridine-2-yl)-5-methoxybenzyl)amino)bicyclo[1.1.1]pentane-1-carboxylic acid] | ≥ 10000 | 23.6
4 | COc1cc(-c2nccc(-c3cccc(-c4ccc(CN5CCC6(CC5)CC(=O)N6)c(OC)n4)c3Cl)c2Cl)ccc1CN1CCC2(CC1)CC(=O)N2 [Example 353, 7-((6-(2-Chloro-3-(3-chloro-2-(3-methoxy-4-((2-oxo-1,7-diazaspiro[3.5]nonan-7-yl)methyl)phenyl)pyridin-4-yl)phenyl)-2-methoxypyridin-3-yl)methyl)-1,7-diazaspiro[3.5]nonan-2-one] | ≥ 10000 | 0.16
5 | COc1cc(-c2nccc(-c3cccc(-c4ccc(CNC5CCN(C(C)=O)CC5)c(OC)n4)c3Cl)c2Cl)ccc1CN[C@@H]1COC(=O)C1 [Example 338, (S)-4-((4-(4-(3-(5-(((1-Acetylpiperidin-4-yl)amino)methyl)-6-methoxypyridin-2-yl)-2-chlorophenyl)-3-chloropyridin-2-yl)-2-methoxybenzyl)amino)dihydrofuran-2(3H)-one] | 96.3 | 0.17
6 | COc1cc(-c2nccc(-c3cccc(NC(=O)c4ccc(CNCCO)cn4)c3Cl)c2Cl)ccc1CNC1CCOCC1 [Example 768, N-(2-Chloro-3-(3-chloro-2-(3-methoxy-4-(((tetrahydro-2H-pyran-4-yl)amino)methyl)phenyl)pyridin-4-yl)phenyl)-5-(((2-hydroxyethyl)amino)methyl)picolinamide] | 16.7 | 0.1
7 | CN1CCNCc2ccc(-c3nccc(-c4cccc(-c5ccc6c(CNC[C@@H]7CCC(=O)N7)cn(C)c6n5)c4Cl)c3Cl)cc21 [Compound 9, (S)-5-((((6-(2-chloro-3-(3-chloro-2-(1-methyl-2,3,4,5-tetrahydro-1H-benzo[e][1,4]diazepin-8-yl)pyridin-4-yl)phenyl)-1-methyl-1H-pyrrolo[2,3-b]pyridin-3-yl)methyl)amino)methyl)pyrrolidin-2-one] | 212 | 15.5
8 | COc1nc(-c2ccnc(-c3cccc4c3CC[C@@H]4Oc3nc(OC)c(CNC[C@@H]4CCC(=O)N4)cc3C(F)(F)F)c2Cl)ccc1CNC[C@@H]1CCC(=O)N1 [Compound 166, (S)-5-((((3′-chloro-6-methoxy-2′-((S)-1-((6-methoxy-5-(((((S)-5-oxopyrrolidin-2-yl)methyl)amino)methyl)-3-(trifluoromethyl)pyridine-2-yl)oxy)-2,3-dihydro-1H-inden-4-yl)-[2,4′-bipyridin]-5-yl)methyl)amino)methyl)pyridine1332ne-2-one] | 1.98 | 0.18
9 | COc1cc(-c2nccc(-c3cccc(-c4ccc(CNCC(=O)O)c(OC)n4)c3Cl)c2Cl)cc2c1CN(C[C@H](C)O)CC2 [Compound 229, (S)-((6-(2-chloro-3-(3-chloro-2-(2-(2-hydroxypropyl)-8-methoxy-1,2,3,4-tetrahydroisoquinolin-6-yl)pyridin-4-yl)phenyl)-2-methoxypyridin-3-yl)methyl)glycine] | 244 | 1.13
10 | CNCc1ccc(-c2cccc(-c3ccnc(-c4cc(CNC[C@@H](O)CC(=O)O)cc(OC)c4)c3Cl)c2Cl)nc1OC [Compound 169, (S)-4-((3-(3-chloro-4-(2-chloro-3-(6-methoxy-5-((methylamino)methyl)pyridine-2-yl)phenyl)pyridine-2-yl)-5-methoxybenzyl)amino)-3-hydroxybutanoic acid] | 632 | 1.85
11 | COc1cc(-c2nccc(-c3cccc(-c4ccc5c(CNC6CCN(C(C)=O)CC6)cn(C)c5n4)c3Cl)c2Cl)ccc1CN1CC2(C1)CN(C(C)=O)C2 [Compound 564, 1-(4-(((6-(3-(2-(4-((6-Acetyl-2,6-diazaspiro[3.3]heptan-2-yl)methyl)-3-methoxyphenyl)-3-chloropyridin-4-yl)-2-chlorophenyl)-1-methyl-1H-pyrrolo[2,3-b]pyridin-3-yl)methyl)amino)piperidin-1-yl)ethan-1-one] | 260 | 1.46
12 | Cc1c(NC(=O)c2ccc(CNC[C@@H]3CCC(=O)N3)cn2)cccc1-c1ccnc(-c2ccc(CNC[C@@H]3CCC(=O)N3)c(OC(F)F)c2)c1Cl [Example 725, N-(3-(3-Chloro-2-(3-(difluoromethoxy)-4-(((((S)-5-oxopyrrolidin-2-yl)methyl)amino)methyl)phenyl)pyridin-4-yl)-2-methylphenyl)-5-(((((S)-5-oxopyrrolidin-2-yl)methyl)amino)methyl)picolinamide] | 120 | 0.53
13 | COc1nc(-c2cccc(-c3ccnc(-c4cc5c(OC)nc(CN6CC(C)(O)C6)nn5c4)c3Cl)c2Cl)ccc1CNC[C@@H]1CCC(=O)N1 [Example 697, (S)-5-((((6-(2-Chloro-3-(3-chloro-2-(2-((3-hydroxy-3-methylazetidin-1-yl)methyl)-4-methoxypyrrolo[2,1-f][1,2,4]triazin-6-yl)pyridin-4-yl)phenyl)-2-methoxypyridin-3-yl)methyl)amino)methyl)pyrrolidin-2-one] | 120 | 6.26
14 | CNCc1ccc(-c2cccc(-c3ccnc(-c4cc(CNCCC(=O)O)cc(OC)c4)c3Cl)c2Cl)nc1OC [Compound 170, 3-((3-(3-chloro-4-(2-chloro-3-(6-methoxy-5-((methylamino)methyl)pyridine-2-yl)phenyl)pyridine-2-yl)-5-methoxybenzyl)amino)propanoic acid] | 415 | 0.73
15 | COc1nc(-c2cccc(-c3ccnc(-c4ccc5c(c4)CNC5)c3Cl)c2Cl)ccc1CN1CC2(CNC(=O)C2)C1 [Compound 230, 2-((6-(2-chloro-3-(3-chloro-2-(isoindolin-5-yl)pyridin-4-yl)phenyl)-2-methoxypyridin-3-yl)methyl)-2,6-diazaspiro[3.4]octan-7-one] | 392 | 10.8
16 | COc1cc(-c2nccc(-c3cccc(-c4ccc(CN5CC6(C5)CN(C(C)=O)C6)c(OC)n4)c3Cl)c2Cl)cnc1CN1CC2(C1)CN(C(C)=O)C2 [Compound 428, 1-(6-((6-(3-(6′-((6-Acetyl-2,6-diazaspiro[3.3]heptan-2-yl)methyl)-3-chloro-5′-methoxy-[2,3′-bipyridin]-4-yl)-2-chlorophenyl)-2-methoxypyridin-3-yl)methyl)-2,6-diazaspiro[3.3]heptan-2-yl)ethan-1-one] | 51.2 | 0.77
